These results are taken from publication PMC3744471, “Mitochondria Are the Target Organelle of Differentiation-Inducing Factor-3, an Anti-Tumor Agent Isolated from Dictyostelium Discoideum” (PLoS ONE, 2013).

Bounds are passed on as bounds.

Data set [1] relates to calmodulin-dependent cyclic nucleotide phosphodiesterase (PDE1). On the set-up: method as in PMID 15059913. The note with it: cited from earlier work.
The test system of the next data set is HeLa cells. Put plainly: Fluorescence microscopy: membrane permeability and cellular localization. The note with it: 20 µM. The class given is cell-based, human. As to the method: (§1) HeLa cells were cultured for 1–2 days with 2 ml DMEM-FBS in 35-mm tissue culture dishes (Becton Dickinson), washed twice with PBS(–), and then fixed for 15–20 min at room temperature with 2 ml of 3.7% (v/v) formaldehyde in PBS(–). The cells were then washed twice with PBS(–) and used for staining with the fluorescent probes. Alternatively, the fixed cells were treated for 15–20 min with 2 ml of 0.1% (w/v) Triton X-100 in PBS(–), washed twice with PBS(–), and used for staining with the fluorescent probes. […]
(§2) For high magnification multi-color imaging, cells were incubated for the appropriate times with 2 ml of DMEM-FBS (HeLa and 3T3-L1) or MEM-α-FBS (LM8) containing various compounds in 35-mm plastic dishes (tissue culture treated µ-Dish; ibidi, Martinsried, Germany). The cells were washed twice with 2 ml of PBS(–), submerged in 2 ml of Hepes buffer (pH 7.4), and observed at room temperature with a Keyence BZ-9000 fluorescence microscope (Osaka, Japan) equipped with an oil immersion 100× lens (CFI Plan Apo VC100XH) and multi-filters that can distinguish four fluorescent probes simultaneously. […]

Assay in data set [2]: as above
The class given is cell-based, human. The conditions noted are these: human, pH 7.4, HeLa, read-out: Time to reach maximal level in cells. As to the method:
as §1, §2

In the case of `CCCCCC(=O)c1c(O)cc(OC)c(Cl)c1O` [DIF-3, 1-(3-chloro-2,6-dihydroxy-4-methoxyphenyl)hexan-1-one], the “Inhibition of PDE1” value in data set [1] was “direct inhibitors of PDE1”.
As for `CCCCCC(=O)c1c(O)cc(OCCCCNC(=O)CCC2=[N+]3C(=Cc4c(C)cc(C)n4[B-]3(F)F)C=C2)c(Cl)c1O` [BODIPY-DIF-3], the “Time to penetrate the cell membrane” value with HeLa cells is no more than 2 min. For the same compound, in data set [2], the Tmax at 20 µM is no more than 30 min.
